Laboratory results from patent US20240327372A1, “PREPARATION OF PHENE[…] […] STEREOISOMERS THEREOF AND PRECURSORS THEREOF” (priority 2022, published 2024).

Legend:
[1] = test system: NET; experiment: NE release study; assay type: biochemical
[2] = target: hKv4.3/hKChIP2 (Homo sapiens (Human), UniProt Q9UK17); experiment: hKv4.3/hKChIP2 Potassium Channel Assay, Qube APC; assay type: cell-based; conditions: Kc4.3/ChIP2, Antagonist mode, test compound
Method: (§1) Electrophysiological assays were conducted to profile three compounds ((R)-methylone, (S)-methylone, or racemic methylone) for activities on the ion channel targets specified below using the Qube electrophysiological platform. Where presented, IC50 values were determined by a non-linear, least squares regression analysis. Reference standards were run as an integral part of each assay to ensure the validity of the results obtained.
(§2) Ion Channels tested were Eurofins Panel Part Number: CPROFullQB2DR Voltage-Gated Sodium: HEK-Nav1.5 (Peak), HEK-Nav1.5 (Late, Antagonist) Voltage-Gated Potassium: HEK-Kv4.3/KChIP2, CHO-hERG, CHO-KCNQ1/minK Voltage-Gated Calcium: HEK-Cav1.2 Inward-Rectifying Voltage-Gated Potassium: HEK-Kir2.1.
hKv4.3/hKChIP2 Potassium Channel Assay—Qube APC After whole cell configuration is achieved, the cells are held at −80 mV. Onset and steady state block of hKv4.3 current is measured using a pulse pattern from −80 mV to 40 mV amplitude for a 110 ms duration, and finally a 100 ms ramp (1.2 V/s) to −80 mV. This paradigm is delivered once every 5 s to monitor the current amplitude.

[3] = test system: NET; experiment: [3H]Norepinephrine uptake inhibition in rat brain synaptosomes; assay type: biochemical; conditions: NE
Method: Materials used were: Neurotransmitters [3H]5-HT (PerkinElmer, NET498001MC) [^3H]Dopamine (PerkinElmer, NET673250UC) [^3H]Norepinephrine (PerkinElmer, NET377250UC); Test Compounds Racemic methylone HCl (Merck, M-140); (R)-methylone HCl (Pisgah Labs); (S)-methylone HCl (Pisgah Labs); Reference Compounds Citalopram (Tocris Bioscience 1427). JHW007 (Tocris Bioscience 4351). Nomifensine (Abcam ab146004).
Synaptosomes were prepared from Sprague Dawley (200-250 g) rat brain regions (hippocampus for NE, striatum for DA and midbrain for 5-HT) using standard protocols. Tissues were dissected, added to sucrose buffer (0.32 M), homogenized with a dounce-homogenizer and centrifuged at 100×g to remove cells and debris. Supernatant was collected and centrifuged 17,000×g for 10 minutes at 4° C. to pellet the synaptosomes. The pellet was resuspended in fresh assay buffer.
Uptake assays were carried out in 96-well plates in a final volume of 250 μL per well. To each well was added 150 μL synaptosomes, 50 μL test, non-specific compound or buffer alone. The plate was incubated at 30° C. for 30 minutes with gentle agitation. 50 μL radiolabeled neurotransmitter in buffer was then added to each well to initiate the uptake. The plate was incubated at 30° C. for a further 5 minutes with gentle agitation. The incubation was stopped by vacuum filtration onto presoaked GF/C filters using a 96-well FilterMate™ harvester, followed by 3 washes with ice-cold wash buffer. Filters were then dried under a warm air stream, sealed in polyethylene, scintillation cocktail added, and the radioactivity counted in a Wallac® TriLux 1450 MicroBeta counter.
For each concentration of drug, non-specific uptake was subtracted from total uptake to give specific uptake. Data was fitted using the non-linear curve fitting routines in Prism® (Graphpad Software Inc) to determine IC50.

[4] = target: hCav1.2 (Homo sapiens (Human), UniProt Q13936); experiment: hCav1.2 (L-type) Calcium Channel Assay, Qube APC; assay type: cell-based; conditions: Cav1.2, Antagonist mode, test compound
Chain of hCav1.2 (Q13936 whole entry, looked up): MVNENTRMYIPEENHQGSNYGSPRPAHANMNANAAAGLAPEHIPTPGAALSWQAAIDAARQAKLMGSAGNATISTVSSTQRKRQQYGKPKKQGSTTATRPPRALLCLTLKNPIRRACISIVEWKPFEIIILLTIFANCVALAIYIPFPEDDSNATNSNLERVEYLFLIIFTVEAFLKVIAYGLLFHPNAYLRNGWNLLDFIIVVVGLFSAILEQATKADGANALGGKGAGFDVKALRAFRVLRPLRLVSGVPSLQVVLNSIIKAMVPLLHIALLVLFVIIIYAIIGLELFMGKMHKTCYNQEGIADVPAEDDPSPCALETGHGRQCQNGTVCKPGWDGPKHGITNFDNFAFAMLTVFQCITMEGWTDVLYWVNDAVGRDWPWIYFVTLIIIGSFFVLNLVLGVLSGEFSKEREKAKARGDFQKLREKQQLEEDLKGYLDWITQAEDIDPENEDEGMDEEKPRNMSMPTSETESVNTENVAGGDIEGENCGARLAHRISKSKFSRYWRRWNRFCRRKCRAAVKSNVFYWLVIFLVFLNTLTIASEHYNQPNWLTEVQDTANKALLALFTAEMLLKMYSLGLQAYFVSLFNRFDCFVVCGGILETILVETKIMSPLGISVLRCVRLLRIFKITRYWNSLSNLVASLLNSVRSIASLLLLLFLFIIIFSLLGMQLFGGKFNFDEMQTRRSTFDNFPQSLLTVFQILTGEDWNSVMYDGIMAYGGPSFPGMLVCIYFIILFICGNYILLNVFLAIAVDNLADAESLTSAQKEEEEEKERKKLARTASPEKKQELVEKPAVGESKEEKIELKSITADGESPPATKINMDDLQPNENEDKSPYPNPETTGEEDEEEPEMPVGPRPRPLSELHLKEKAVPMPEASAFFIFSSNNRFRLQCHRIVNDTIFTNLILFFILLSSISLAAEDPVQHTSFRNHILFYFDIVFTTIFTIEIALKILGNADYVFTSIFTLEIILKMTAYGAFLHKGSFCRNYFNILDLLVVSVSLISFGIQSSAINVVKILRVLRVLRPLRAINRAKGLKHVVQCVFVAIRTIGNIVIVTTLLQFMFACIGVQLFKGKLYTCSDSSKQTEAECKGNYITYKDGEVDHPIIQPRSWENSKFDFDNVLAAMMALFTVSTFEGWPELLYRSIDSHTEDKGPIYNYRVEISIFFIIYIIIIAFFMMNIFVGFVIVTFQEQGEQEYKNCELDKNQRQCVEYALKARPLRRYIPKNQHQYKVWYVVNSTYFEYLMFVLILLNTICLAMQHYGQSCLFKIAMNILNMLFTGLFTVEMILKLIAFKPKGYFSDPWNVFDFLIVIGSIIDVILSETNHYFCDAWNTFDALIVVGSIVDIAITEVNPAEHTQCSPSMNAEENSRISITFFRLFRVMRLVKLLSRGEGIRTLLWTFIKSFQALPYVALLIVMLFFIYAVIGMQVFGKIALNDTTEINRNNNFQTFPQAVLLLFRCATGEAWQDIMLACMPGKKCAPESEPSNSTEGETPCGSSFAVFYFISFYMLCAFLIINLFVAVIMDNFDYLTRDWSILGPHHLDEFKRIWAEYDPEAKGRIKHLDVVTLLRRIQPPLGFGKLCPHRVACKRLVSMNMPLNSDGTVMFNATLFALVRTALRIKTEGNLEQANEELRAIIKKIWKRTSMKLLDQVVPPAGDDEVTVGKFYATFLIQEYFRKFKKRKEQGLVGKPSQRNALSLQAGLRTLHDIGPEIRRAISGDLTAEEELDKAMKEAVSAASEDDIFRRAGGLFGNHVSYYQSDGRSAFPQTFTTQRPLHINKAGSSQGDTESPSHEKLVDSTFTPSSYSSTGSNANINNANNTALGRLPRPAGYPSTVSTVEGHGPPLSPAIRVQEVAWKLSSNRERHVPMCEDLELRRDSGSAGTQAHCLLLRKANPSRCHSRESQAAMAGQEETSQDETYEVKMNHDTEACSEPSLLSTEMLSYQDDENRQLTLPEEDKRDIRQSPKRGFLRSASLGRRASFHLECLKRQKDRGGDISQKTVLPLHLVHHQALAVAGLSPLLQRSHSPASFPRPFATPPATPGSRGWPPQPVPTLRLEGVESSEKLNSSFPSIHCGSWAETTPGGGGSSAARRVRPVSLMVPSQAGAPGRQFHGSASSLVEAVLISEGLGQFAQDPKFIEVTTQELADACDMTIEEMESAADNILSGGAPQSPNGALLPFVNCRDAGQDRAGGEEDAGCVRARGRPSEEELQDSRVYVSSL
Chain of hCav1.2 (Q08289 whole entry partner, looked up): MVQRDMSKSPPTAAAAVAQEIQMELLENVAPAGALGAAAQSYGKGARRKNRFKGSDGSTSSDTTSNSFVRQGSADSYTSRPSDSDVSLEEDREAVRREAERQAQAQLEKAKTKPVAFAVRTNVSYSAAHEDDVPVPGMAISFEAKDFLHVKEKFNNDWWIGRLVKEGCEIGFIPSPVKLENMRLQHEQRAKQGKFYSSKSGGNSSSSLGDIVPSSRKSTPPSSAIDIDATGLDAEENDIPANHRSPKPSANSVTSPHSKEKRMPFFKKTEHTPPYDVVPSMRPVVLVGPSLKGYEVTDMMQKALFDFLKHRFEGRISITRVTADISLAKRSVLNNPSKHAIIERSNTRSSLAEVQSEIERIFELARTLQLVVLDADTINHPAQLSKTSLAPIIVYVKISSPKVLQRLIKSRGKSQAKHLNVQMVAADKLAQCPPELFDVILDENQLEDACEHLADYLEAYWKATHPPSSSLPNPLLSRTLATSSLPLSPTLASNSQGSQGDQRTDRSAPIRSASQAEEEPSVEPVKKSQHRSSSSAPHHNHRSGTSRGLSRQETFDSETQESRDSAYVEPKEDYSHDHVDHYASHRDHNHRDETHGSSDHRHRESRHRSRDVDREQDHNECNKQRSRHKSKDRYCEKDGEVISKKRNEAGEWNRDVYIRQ
Chain of hCav1.2 (P54289 whole entry partner, looked up): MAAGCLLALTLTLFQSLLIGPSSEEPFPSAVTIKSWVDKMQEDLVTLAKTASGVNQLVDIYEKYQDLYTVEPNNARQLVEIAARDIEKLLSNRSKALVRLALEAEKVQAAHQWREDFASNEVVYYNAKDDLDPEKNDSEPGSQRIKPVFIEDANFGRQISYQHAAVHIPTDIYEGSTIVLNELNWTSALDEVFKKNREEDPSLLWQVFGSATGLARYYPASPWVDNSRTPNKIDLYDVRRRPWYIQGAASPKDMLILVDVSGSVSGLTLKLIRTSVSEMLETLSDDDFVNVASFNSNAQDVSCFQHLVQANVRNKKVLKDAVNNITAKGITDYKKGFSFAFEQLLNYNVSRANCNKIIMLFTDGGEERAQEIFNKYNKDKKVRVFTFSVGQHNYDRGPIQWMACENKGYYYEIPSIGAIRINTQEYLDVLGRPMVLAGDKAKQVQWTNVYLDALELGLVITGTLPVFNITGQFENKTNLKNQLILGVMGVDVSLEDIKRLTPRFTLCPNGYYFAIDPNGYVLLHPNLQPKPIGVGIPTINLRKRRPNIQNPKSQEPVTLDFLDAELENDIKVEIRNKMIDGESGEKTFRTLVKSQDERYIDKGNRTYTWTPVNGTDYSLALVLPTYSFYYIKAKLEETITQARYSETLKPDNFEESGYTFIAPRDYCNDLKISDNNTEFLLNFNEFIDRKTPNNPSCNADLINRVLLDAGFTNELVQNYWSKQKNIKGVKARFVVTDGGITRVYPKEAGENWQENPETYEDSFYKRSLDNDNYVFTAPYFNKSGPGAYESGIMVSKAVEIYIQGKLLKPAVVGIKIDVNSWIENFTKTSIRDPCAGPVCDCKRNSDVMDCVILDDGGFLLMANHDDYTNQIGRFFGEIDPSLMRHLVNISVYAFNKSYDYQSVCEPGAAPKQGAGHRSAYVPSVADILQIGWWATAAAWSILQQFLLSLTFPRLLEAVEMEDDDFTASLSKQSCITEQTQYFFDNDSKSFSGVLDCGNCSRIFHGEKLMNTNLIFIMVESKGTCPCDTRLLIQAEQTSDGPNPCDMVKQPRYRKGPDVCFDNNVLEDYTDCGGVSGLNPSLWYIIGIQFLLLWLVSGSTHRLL
Chain of hCav1.2 (P54289 whole entry partner, looked up): as above
Method: (§3) Where presented, IC50 values were determined by a non-linear, least squares regression analysis.
(§4) Recombinant HEK-293 cells stably transfected with human Nav1.5 cDNA, recombinant HEK293 cell line expressing the human Cav1.2 (L-type voltage gated calcium channel, hCav1.2 α1C/β2a/α2δ1, and recombinant CHO-K1 cells stably transfected with human hERG cDNA were used separately in each of these assays.
hCav1.2 (L-type) Calcium Channel Assay—Qube APC After whole cell configuration is achieved, the cells are held at −90 mV. Cav1.2 currents are evoked by a 50 ms pulse to −100 mV followed by a 200 ms pulse to +20 mV before returning to the holding potential of −90 mV. This paradigm is delivered three times every 60 s to monitor the current amplitude.

[5] = test system: rat forced swim test (FST); experiment: Rat forced swim test (FST); assay type: in vivo; conditions: single dose 10 mg/kg IP, 30 min before testing
Method: All FST studies are performed and scored by an experimenter blind to treatment group and according to standard protocols. Briefly, rats are placed in a circular plexiglass container filled with water. Water temperature is maintained at 22-25° C. and changed for every animal. Day 1 (Training) consists of a 15 min acclimation trial, and Day 2 (Testing, 24 h later) consists of the 5 min test. A time sampling procedure is employed where animals are observed every 5 seconds for the duration of the test session (60 counts or 5 minutes) and scored for immobility (defined as the failure to struggle), swimming (defined as a circular movement around the tank), or climbing (defined as an upwards escape behavior). Data are expressed as the percent of the testing session (e.g., the number of immobility counts divided by 60). A p-value less than 0.05 indicates statistical significance after typical statistical analyses (e.g., unpaired t-test or ANOVA).
To determine that the prodrug and/or enantiomer has an antidepressant-like effect and to compare it to methylone, rats are treated with each compound 30 min prior to testing. Additional tests are run 24, 72, 168 hours post-dose or longer.
Racemic methylone (10 mg/kg, IP) has a maximal antidepressant-like effect in the rat forced swim test (FST), reducing immobility by nearly 100% compared to vehicle treated controls. To determine whether one enantiomer of methylone could mimic the robust antidepressant-like effect of racemic methylone, rats were treated with a single dose of racemic methylone, (R)-methylone, (S)-methylone (all 10 mg/kg, IP) or vehicle 30 min before testing in the FST. […] Therefore, all of the activity of methylone appears to be driven by the activity of one enantiomer ((S)-methylone).

[6] = target: hERG (Homo sapiens (Human), UniProt Q12809); experiment: hERG Potassium Channel Assay, Qube APC; assay type: cell-based; conditions: Antagonist mode, test compound
Method: as §3, §4
hERG Potassium Channel Assay—Qube APC After whole cell configuration is achieved, the cells are held at −80 mV. Cells are held at this voltage for 50 ms to measure the leak current, which is subtracted from the tail current on-line. The cells are depolarized to +40 mV for 500 ms and then to −80 mV over a 100 ms ramp to elicit the hERG tail current. This paradigm is delivered once every 8 s to monitor the current amplitude.

[7] = target: hKir2.1 (Homo sapiens (Human), UniProt P63252); assay type: cell-based; conditions: Kir2.1, Antagonist mode, test compound
Method: as §1, §2
hKir2.1 Potassium Channel Assay—Qube APC After whole cell configuration is achieved, the cells are held at −30 mV. Kir2.1 currents are evoked by a single 500 ms pulse to −120 mV before returning to the holding potential of −30 mV. This paradigm is delivered once every 20 s to monitor the current amplitude.

CN[C@@H](C)C(=O)c1ccc2c(c1)OCO2 [(S)-methylone]
EC50 [1]: 760 nM
Estimated IC50 [2]: N/C (N/C indicates observed mean inhibition was <25%)
IC50 [3]: 316 nM
Estimated IC50 [4]: N/C (N/C indicates observed mean inhibition was <25%)
Antidepressant-like effect in the FST [5]: mimicked the rapid and robust antidepressant-like effect of racemic methylone
Estimated IC50 [6]: N/C (N/C indicates observed mean inhibition was <25%)
Estimated IC50 [7]: N/C (N/C indicates observed mean inhibition was <25%)

CN[C@H](C)C(=O)c1ccc2c(c1)OCO2 [(R)-methylone]
EC50 [1]: 191 nM
Estimated IC50 [2]: N/C (N/C indicates observed mean inhibition was <25%)
IC50 [3]: 242 nM
Estimated IC50 [4]: N/C (N/C indicates observed mean inhibition was <25%)
Antidepressant-like effect in the FST [5]: no effect
Estimated IC50 [6]: N/C (N/C indicates observed mean inhibition was <25%)
Estimated IC50 [7]: N/C (N/C indicates observed mean inhibition was <25%)
